According to ChEMBL document CHEMBL3885881, “DrugMatrix”:

Organism: Rattus norvegicus
Experiment: DrugMatrix - Regimen: Daily Repeat
Assay type: toxicity, organism-based, Sprague-Dawley
Design: regimen Daily Repeat, gender Male, age 6-8 weeks
Settings: in vivo, po, route oral GAVAGE, […]; for ABSOLUTE BASOPHIL / ABSOLUTE EOSINOPHIL / ABSOLUTE LYMPHOCYTE / ABSOLUTE MONOCYTE / ABSOLUTE SEGMENTED NEUTROPHIL / BASOPHIL / EOSINOPHIL / ERYTHROCYTE COUNT / HEMATOCRIT / HEMOGLOBIN / LEUKOCYTE COUNT / LYMPHOCYTE / MEAN CORPUSCULAR HEMOGLOBIN / MEAN CORPUSCULAR HEMOGLOBIN CONCENTRATION / MEAN CORPUSCULAR VOLUME / MONOCYTE / NEUTROPHIL / NUCLEATED RED BLOOD CELLS / PLATELET COUNT: tissue Blood; for ALANINE AMINOTRANSFERASE / ALBUMIN / ALKALINE PHOSPHATASE / ASPARTATE AMINOTRANSFERASE / BLOOD UREA NITROGEN / CARBON DIOXIDE / CHLORIDE / CHOLESTEROL / CREATINE PHOSPHOKINASE / CREATININE / GLUCOSE / LACTATE DEHYDROGENASE / LIPASE / PHOSPHORUS / POTASSIUM / SODIUM / TOTAL BILIRUBIN / TOTAL PROTEIN / URIC ACID: tissue Plasma
[1] = 2000 mg/kg, 72 h, dose level High, time 3 day
[2] = 2000 mg/kg, 120 h, dose level High, time 5 day
[3] = 72 h, dose 0.33 mg/Kg, dose level Low, time 3 day
[4] = 120 h, dose 0.33 mg/Kg, dose level Low, time 5 day

COc1ccc2[nH]cc(CCNC(C)=O)c2c1 [MELATONIN]
ABSOLUTE BASOPHIL [1]: 0 CELLS/uL
ABSOLUTE EOSINOPHIL [1]: 23.67 CELLS/uL
ABSOLUTE LYMPHOCYTE [1]: 9249.33 CELLS/uL
ABSOLUTE MONOCYTE [1]: 250.67 CELLS/uL
ABSOLUTE SEGMENTED NEUTROPHIL [1]: 1876.33 CELLS/uL
BASOPHIL [1]: 0%
EOSINOPHIL [1]: 0.33%
ERYTHROCYTE COUNT [1]: 5.38 x10E6/uL
HEMATOCRIT [1]: 32.93%
HEMOGLOBIN [1]: 13.5 G/DL
LEUKOCYTE COUNT [1]: 11.4 x10E3/uL
LYMPHOCYTE [1]: 82.33%
MEAN CORPUSCULAR HEMOGLOBIN [1]: 25.17 pg
MEAN CORPUSCULAR HEMOGLOBIN CONCENTRATION [1]: 41.03 G/DL
MEAN CORPUSCULAR VOLUME [1]: 61.27 fL
MONOCYTE [1]: 2%
NEUTROPHIL [1]: 15.33%
NUCLEATED RED BLOOD CELLS [1]: 0 /100WBC
PLATELET COUNT [1]: 1209.67 x10E3/uL
ALANINE AMINOTRANSFERASE [1]: 115 u/L
ALBUMIN [1]: 3.3 G/DL
ALKALINE PHOSPHATASE [1]: 505.67 u/L
ASPARTATE AMINOTRANSFERASE [1]: 128.33 u/L
BLOOD UREA NITROGEN [1]: 15 mg/dL
CARBON DIOXIDE [1]: 25.67 mmol/L
CHLORIDE [1]: 100.33 MEQ/L
CHOLESTEROL [1]: 84 mg/dL
CREATINE PHOSPHOKINASE [1]: 757.33 u/L
CREATININE [1]: 0.38 mg/dL
GLUCOSE [1]: 155 mg/dL
LACTATE DEHYDROGENASE [1]: 369.33 u/L
LIPASE [1]: 11.67 u/L
PHOSPHORUS [1]: 13.07 mg/dL
POTASSIUM [1]: 6.08 MEQ/L
SODIUM [1]: 140.4 MEQ/L
TOTAL BILIRUBIN [1]: 0.5 mg/dL
TOTAL PROTEIN [1]: 4.6 G/DL
URIC ACID [1]: 1.43 mg/dL
ABSOLUTE BASOPHIL [2]: 0 CELLS/uL
ABSOLUTE EOSINOPHIL [2]: 0 CELLS/uL
ABSOLUTE LYMPHOCYTE [2]: 18071 CELLS/uL
ABSOLUTE MONOCYTE [2]: 251 CELLS/uL
ABSOLUTE SEGMENTED NEUTROPHIL [2]: 1211.33 CELLS/uL
BASOPHIL [2]: 0%
EOSINOPHIL [2]: 0%
ERYTHROCYTE COUNT [2]: 6.07 x10E6/uL
HEMATOCRIT [2]: 38.13%
HEMOGLOBIN [2]: 15.13 G/DL
LEUKOCYTE COUNT [2]: 19.53 x10E3/uL
LYMPHOCYTE [2]: 92.67%
MEAN CORPUSCULAR HEMOGLOBIN [2]: 24.9 pg
MEAN CORPUSCULAR HEMOGLOBIN CONCENTRATION [2]: 39.7 G/DL
MEAN CORPUSCULAR VOLUME [2]: 62.77 fL
MONOCYTE [2]: 1.33%
NEUTROPHIL [2]: 6%
NUCLEATED RED BLOOD CELLS [2]: 0 /100WBC
PLATELET COUNT [2]: 1278.33 x10E3/uL
ALANINE AMINOTRANSFERASE [2]: 124.67 u/L
ALBUMIN [2]: 3.73 G/DL
ALKALINE PHOSPHATASE [2]: 553.33 u/L
ASPARTATE AMINOTRANSFERASE [2]: 154.67 u/L
BLOOD UREA NITROGEN [2]: 19 mg/dL
CARBON DIOXIDE [2]: 32 mmol/L
CHLORIDE [2]: 100.33 MEQ/L
CHOLESTEROL [2]: 99 mg/dL
CREATINE PHOSPHOKINASE [2]: 788.67 u/L
CREATININE [2]: 0.24 mg/dL
GLUCOSE [2]: 136 mg/dL
LACTATE DEHYDROGENASE [2]: 320.67 u/L
LIPASE [2]: 12.33 u/L
PHOSPHORUS [2]: 11.03 mg/dL
POTASSIUM [2]: 6.53 MEQ/L
SODIUM [2]: 142.13 MEQ/L
TOTAL BILIRUBIN [2]: 0.4 mg/dL
TOTAL PROTEIN [2]: 5.07 G/DL
URIC ACID [2]: 1.2 mg/dL
ABSOLUTE BASOPHIL [3]: 0 CELLS/uL
ABSOLUTE EOSINOPHIL [3]: 0 CELLS/uL
ABSOLUTE LYMPHOCYTE [3]: 12175.67 CELLS/uL
ABSOLUTE MONOCYTE [3]: 180.67 CELLS/uL
ABSOLUTE SEGMENTED NEUTROPHIL [3]: 1643.67 CELLS/uL
BASOPHIL [3]: 0%
EOSINOPHIL [3]: 0%
ERYTHROCYTE COUNT [3]: 5.39 x10E6/uL
HEMATOCRIT [3]: 34.47%
HEMOGLOBIN [3]: 13.5 G/DL
LEUKOCYTE COUNT [3]: 14 x10E3/uL
LYMPHOCYTE [3]: 87.33%
MEAN CORPUSCULAR HEMOGLOBIN [3]: 25.1 pg
MEAN CORPUSCULAR HEMOGLOBIN CONCENTRATION [3]: 39.17 G/DL
MEAN CORPUSCULAR VOLUME [3]: 64.03 fL
MONOCYTE [3]: 1.33%
NEUTROPHIL [3]: 11.33%
NUCLEATED RED BLOOD CELLS [3]: 0 /100WBC
PLATELET COUNT [3]: 1125.33 x10E3/uL
ALANINE AMINOTRANSFERASE [3]: 65 u/L
ALBUMIN [3]: 4 G/DL
ALKALINE PHOSPHATASE [3]: 447.33 u/L
ASPARTATE AMINOTRANSFERASE [3]: 76.67 u/L
BLOOD UREA NITROGEN [3]: 13.33 mg/dL
CARBON DIOXIDE [3]: 31 mmol/L
CHLORIDE [3]: 102 MEQ/L
CHOLESTEROL [3]: 74.33 mg/dL
CREATINE PHOSPHOKINASE [3]: 191.33 u/L
CREATININE [3]: 0.26 mg/dL
GLUCOSE [3]: 163.33 mg/dL
LACTATE DEHYDROGENASE [3]: 156.67 u/L
LIPASE [3]: 10.33 u/L
PHOSPHORUS [3]: 11.6 mg/dL
POTASSIUM [3]: 6.23 MEQ/L
SODIUM [3]: 142.1 MEQ/L
TOTAL BILIRUBIN [3]: 0.2 mg/dL
TOTAL PROTEIN [3]: 5.03 G/DL
URIC ACID [3]: 1.47 mg/dL
ABSOLUTE BASOPHIL [4]: 0 CELLS/uL
ABSOLUTE EOSINOPHIL [4]: 0 CELLS/uL
ABSOLUTE LYMPHOCYTE [4]: 12476.67 CELLS/uL
ABSOLUTE MONOCYTE [4]: 229.67 CELLS/uL
ABSOLUTE SEGMENTED NEUTROPHIL [4]: 1393.67 CELLS/uL
BASOPHIL [4]: 0%
EOSINOPHIL [4]: 0%
ERYTHROCYTE COUNT [4]: 5.39 x10E6/uL
HEMATOCRIT [4]: 32.43%
HEMOGLOBIN [4]: 13.13 G/DL
LEUKOCYTE COUNT [4]: 14.1 x10E3/uL
LYMPHOCYTE [4]: 88.33%
MEAN CORPUSCULAR HEMOGLOBIN [4]: 24.4 pg
MEAN CORPUSCULAR HEMOGLOBIN CONCENTRATION [4]: 40.53 G/DL
MEAN CORPUSCULAR VOLUME [4]: 60.23 fL
MONOCYTE [4]: 1.67%
NEUTROPHIL [4]: 10%
NUCLEATED RED BLOOD CELLS [4]: 0 /100WBC
PLATELET COUNT [4]: 1131.67 x10E3/uL
ALANINE AMINOTRANSFERASE [4]: 56.33 u/L
ALBUMIN [4]: 4.1 G/DL
ALKALINE PHOSPHATASE [4]: 363.67 u/L
ASPARTATE AMINOTRANSFERASE [4]: 76 u/L
BLOOD UREA NITROGEN [4]: 16 mg/dL
CARBON DIOXIDE [4]: 30 mmol/L
CHLORIDE [4]: 102 MEQ/L
CHOLESTEROL [4]: 64 mg/dL
CREATINE PHOSPHOKINASE [4]: 170.33 u/L
CREATININE [4]: 0.24 mg/dL
GLUCOSE [4]: 163 mg/dL
LACTATE DEHYDROGENASE [4]: 89.33 u/L
LIPASE [4]: 10.67 u/L
PHOSPHORUS [4]: 10.7 mg/dL
POTASSIUM [4]: 5.96 MEQ/L
SODIUM [4]: 142.07 MEQ/L
TOTAL BILIRUBIN [4]: 0.17 mg/dL
TOTAL PROTEIN [4]: 5.53 G/DL
URIC ACID [4]: 1.3 mg/dL
